According to patent US12558342B2, “2-[2-({12,12-dimethyl-4-oxo-6-phenyl-3,11-dioxatricyclo[8.4.0.0,2,7]tetradeca-1,5,7,9-tetraen-8-yl}oxy)acetamido]benzamide and derivatives as inhibitor of clock:bmal1 interaction for the treatment of circadian rhythm diseases and disorders” (KOC UNIVERSITESI, priority 2019, dated 2026):

Assays:
Bmal1::dluc U2OS cells = test: Real-time monitoring of circadian rhythm, Bmal1::dluc U2OS; type: cell-based, human
Method: We used Bmal1::dluc U2-OS and Per1::dluc NIH 3T3, and continuously monitored the bioluminescence to record circadian rhythm. This experiment was performed in 96-well plates (triplicates) and 35-mm dishes (duplicates) in the secondary screen and detailed characterization steps respectively. Briefly, cells were seeded to reach confluency. A day after, the medium was replaced with DMEM containing 0.1 μM Dexamethasone to synchronize cells. Two hour later, 0.1 mM of Luciferin was freshly added to the recording medium (low glucose DMEM powder (with L-glutamine) supplemented with 10 mM HEPES, […] sodium bicarbonate, 3.5 mg/ml D-(+)-glucose powder, 5% FBS, 0.1 mM NEAA, 100 U/ml penicillin and […]). Then, the medium was replaced with recording medium containing appropriate amount of each compound. Control cells were treated with 0.5% vehicle (DMSO). For a detailed characterization of CLK8, whenever required, and without any further medium change, small molecule treatment was postponed to two days after bioluminescence recording started. The 96-well plates were covered and bioluminescence was monitored by Synergy H1 Hybrid Multi-Mode Reader every 32 minutes. Similarly, we sealed the 35-mm plates with vacuum grease prior to mounting them on a LumiCycle luminometer (Actimetrics). Bioluminescence was recorded every 10 minutes for 4-6 days. Raw data (counts/sec) were plotted against time. The period and amplitude parameters were obtained using LumiCycle Analysis software (Actimetrics). First, the raw data was baseline fitted (n=1), and then the baseline-subtracted data was fitted to a sine wave (damped). The first day's data was excluded from the analysis due to transient perturbations of luminescence after the medium change.
We used Bmal1::dluc U2-OS and Per1::dluc NIH 3T3, and continuously monitored the bioluminescence to record circadian rhythm. This experiment was performed in 96-well plates (triplicates) and 35-mm dishes (duplicates) in the secondary screen and detailed characterization steps respectively. Briefly, cells were seeded to reach confluency. A day after, the medium was replaced with DMEM containing 0.1 μM Dexamethasone to synchronize cells. Two hour later, 0.1 mM of Luciferin was freshly added to the recording medium (low glucose DMEM powder (with L-glutamine) supplemented with 10 mM HEPES, 0.35 mg/ml sodium bicarbonate, 3.5 mg/ml D-(+)-glucose powder, 5% FBS, 0.1 mM NEAA, 100 U/ml penicillin and […]). […] The 96-well plates were covered and bioluminescence was monitored by Synergy H1 Hybrid Multi-Mode Reader every 32 minutes. […] Bioluminescence was recorded every 10 minutes for 4-6 days. […] The first day's data was excluded from the analysis due to transient perturbations of luminescence after the medium change.

NAV2 = target: T1, NAV2 (Homo sapiens, UniProt Q8IVL1); test: LC-MS/MS of pull-down precipitates, NAV2; type: binding; settings: Competitor 0 μM
T1 construct: endogenous in cells; host or cells: HEK 293T
T1 sequence (Q8IVL1 whole entry): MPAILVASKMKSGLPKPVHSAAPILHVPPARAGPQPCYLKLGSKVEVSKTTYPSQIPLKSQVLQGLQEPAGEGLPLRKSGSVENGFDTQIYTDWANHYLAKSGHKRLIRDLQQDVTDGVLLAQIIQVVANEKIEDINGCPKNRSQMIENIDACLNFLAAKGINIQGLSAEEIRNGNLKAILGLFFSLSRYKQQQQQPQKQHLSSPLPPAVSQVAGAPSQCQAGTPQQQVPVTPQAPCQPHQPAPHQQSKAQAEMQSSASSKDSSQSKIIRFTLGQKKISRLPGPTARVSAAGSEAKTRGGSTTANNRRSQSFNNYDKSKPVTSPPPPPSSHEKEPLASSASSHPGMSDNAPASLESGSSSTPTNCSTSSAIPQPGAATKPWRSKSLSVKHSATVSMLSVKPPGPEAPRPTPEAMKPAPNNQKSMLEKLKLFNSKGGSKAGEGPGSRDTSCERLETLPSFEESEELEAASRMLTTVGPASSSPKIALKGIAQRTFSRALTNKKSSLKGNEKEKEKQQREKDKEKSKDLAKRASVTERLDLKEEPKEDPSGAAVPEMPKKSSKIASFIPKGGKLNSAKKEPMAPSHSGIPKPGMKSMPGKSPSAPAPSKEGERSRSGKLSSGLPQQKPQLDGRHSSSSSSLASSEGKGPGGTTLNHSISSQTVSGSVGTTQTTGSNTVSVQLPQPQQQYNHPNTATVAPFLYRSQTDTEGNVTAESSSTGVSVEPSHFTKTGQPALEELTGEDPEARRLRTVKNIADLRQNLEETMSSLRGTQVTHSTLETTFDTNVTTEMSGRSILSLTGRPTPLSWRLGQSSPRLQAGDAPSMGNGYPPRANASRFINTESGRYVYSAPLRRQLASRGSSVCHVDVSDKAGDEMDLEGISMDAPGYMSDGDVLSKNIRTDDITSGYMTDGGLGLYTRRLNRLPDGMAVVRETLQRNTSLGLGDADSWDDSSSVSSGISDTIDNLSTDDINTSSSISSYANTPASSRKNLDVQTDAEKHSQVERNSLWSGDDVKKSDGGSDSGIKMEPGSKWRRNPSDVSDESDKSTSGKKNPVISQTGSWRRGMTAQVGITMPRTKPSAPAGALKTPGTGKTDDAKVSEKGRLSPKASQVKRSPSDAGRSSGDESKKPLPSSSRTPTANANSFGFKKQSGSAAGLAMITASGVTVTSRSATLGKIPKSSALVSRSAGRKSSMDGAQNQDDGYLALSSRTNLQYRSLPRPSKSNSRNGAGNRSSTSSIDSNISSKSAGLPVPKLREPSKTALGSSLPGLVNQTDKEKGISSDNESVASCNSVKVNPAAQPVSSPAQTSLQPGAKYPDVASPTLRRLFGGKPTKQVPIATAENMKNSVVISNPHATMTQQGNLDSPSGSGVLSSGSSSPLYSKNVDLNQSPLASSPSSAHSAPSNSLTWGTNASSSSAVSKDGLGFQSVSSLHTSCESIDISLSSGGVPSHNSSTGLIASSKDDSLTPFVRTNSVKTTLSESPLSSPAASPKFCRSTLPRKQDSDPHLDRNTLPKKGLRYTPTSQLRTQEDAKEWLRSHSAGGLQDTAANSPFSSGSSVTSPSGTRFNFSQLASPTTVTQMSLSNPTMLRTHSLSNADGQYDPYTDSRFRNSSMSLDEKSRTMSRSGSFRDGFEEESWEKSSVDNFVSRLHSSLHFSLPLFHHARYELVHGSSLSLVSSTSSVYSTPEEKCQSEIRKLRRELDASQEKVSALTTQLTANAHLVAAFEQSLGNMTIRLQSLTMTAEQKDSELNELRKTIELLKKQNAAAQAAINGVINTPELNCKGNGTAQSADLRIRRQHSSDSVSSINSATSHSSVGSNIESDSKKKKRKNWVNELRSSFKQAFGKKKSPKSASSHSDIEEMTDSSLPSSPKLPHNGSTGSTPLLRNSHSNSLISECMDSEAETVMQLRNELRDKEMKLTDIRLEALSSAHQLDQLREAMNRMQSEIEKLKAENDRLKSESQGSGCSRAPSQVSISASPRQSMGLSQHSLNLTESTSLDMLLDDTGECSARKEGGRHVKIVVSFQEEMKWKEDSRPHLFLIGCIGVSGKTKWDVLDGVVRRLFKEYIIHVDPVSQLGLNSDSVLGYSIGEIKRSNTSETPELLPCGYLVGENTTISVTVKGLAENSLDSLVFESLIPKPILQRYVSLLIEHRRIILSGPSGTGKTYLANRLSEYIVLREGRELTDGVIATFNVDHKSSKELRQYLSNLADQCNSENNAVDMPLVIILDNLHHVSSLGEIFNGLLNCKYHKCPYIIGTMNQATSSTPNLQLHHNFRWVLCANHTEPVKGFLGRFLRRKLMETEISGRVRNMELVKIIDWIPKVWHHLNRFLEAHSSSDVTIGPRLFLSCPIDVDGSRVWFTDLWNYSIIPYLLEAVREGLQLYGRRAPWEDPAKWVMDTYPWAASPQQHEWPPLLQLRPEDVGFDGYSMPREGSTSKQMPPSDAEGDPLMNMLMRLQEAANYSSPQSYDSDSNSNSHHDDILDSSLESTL
Method: HEK293T cells were transiently transfected with tag-free hsClock and mBmal1. After 48 hours of transfection, cells were harvested and whole cell lysate was prepared with ice-cold lysis buffer (50 mM Tris-HCl pH 7.4, 2 mM EDTA, 1 mM MgCl2, 0.2% NP-40, 1 mM sodium orthovanadate, 1 mM sodium fluoride and protease inhibitor cocktail) followed by centrifugation at 7000×g at 4° C. for 10 minutes. Lysate was diluted with ice-cold 2× binding buffer (100 mM Tris-HCl pH 7.4, 300 mM NaCl, 0.2% NP-40, 2 mM sodium orthovanadate, 2 mM sodium fluoride, and protease inhibitor cocktail) 27. The lysate was divided into three fractions to be treated with either DMSO, or 20 μM of bitoinylated-CLK8 (bait) with or without 200 μM CLK8 (competitor). […]
The next step was to check for off-targets of CLK8. […] Since the amount of precipitated endogenous CLOCK was insufficient to be detected in LC-MS/MS, whole cell lysate of HEK 293T cells overexpressing CLOCK and BMAL1 were used for LC-MS/MS. We determined proteins that potentially bind to CLK8 by utilizing a minimum threshold for peptide spectrum matches and coverage equal to those of the main target, CLOCK. We also excluded proteins that have been detected in negative controls of the CRAPome database (32), assuming them as abundant sticky proteins. […] BMAL1 was detected in lower amounts when a competitor was present. […]

CLOCK, BMAL1 and CRY1 = test: In vivo study in mouse liver, Western blot; settings: 25 mg/kg i.p., 6 h
Method: Male C57BL/6J mice, 8 weeks of age, weighing 18-24 g were treated with two different single doses of CLK8 (25 mg/kg n=5 per each dose) intraperitoneally. Control mice (n=3) were only treated with vehicle (DMSO:Cremophor EL: 0.9% NaCl; 2.5:15:82.5, v/v, i.p.). Water and food were provided ad libitum throughout the experiments. Six hours after injection, mice were sacrificed by cervical dislocation. Liver tissues were removed, frozen in liquid nitrogen and stored at −80° C. until further processing.

Peptide spectrum matches, NAV2 (NAV2): 263
Compound: CC1(C)CCc2c(cc(OCC(=O)Nc3ccccc3C(N)=O)c3c(-c4ccccc4)cc(=O)oc23)O1 [CLK8, 2-[2-({12,12-dimethyl-4-oxo-6-phenyl-3,11-dioxatricyclo [8.4.0.0,2,7]tetradeca-1,5,7,9-tetraen-8-yl}oxy)acetamido] benzamide]
enhancement of amplitude (Bmal1::dluc U2OS cells; 10 μM, treated two days after synchronization): more than 50%
period of circadian rhythm (Bmal1::dluc U2OS cells; U2OS-Bmal1::dLuc): no period changes
amplitude of circadian rhythm (Bmal1::dluc U2OS cells; U2OS-Bmal1::dLuc, dose dependent): enhances the amplitude
phase of the first trough after treatment (Bmal1::dluc U2OS cells; treated two days after synchronization, vs DMSO control): advanced the phase of the first trough
CLOCK abundance in the nucleus (liver) (CLOCK, BMAL1 and CRY1): significantly low
CLOCK levels in whole liver cell lysate (CLOCK, BMAL1 and CRY1): decrease
cytosolic and nuclear BMAL1 and CRY1 (liver) (CLOCK, BMAL1 and CRY1): unaltered
levels of BMAL1 and CRY1 in whole liver cell lysate (CLOCK, BMAL1 and CRY1): unaltered
